The results in this text go back to US20030022821A1, “Bioactive peptides” (priority 1998, published 2003).

≈ marks a conversion by molar mass, not a printed value. Where two headings read alike, the source gives them in different places. Peptide text beside a SMILES is read from it. * marks the point of attachment. Acm = CC(=O)NC*

The test system of experiment [1] is Escherichia coli ATCC 25922. Type of experiment: cell-based. As to the method: (§1) The bacterial strains used were: Escherichia coli ATCC 25922 and Staphylococcus aureus ATCC 25923. All strains were stored at −70° C. The bacteria were grown in 2% Bacto Peptone water (Difco 1807-17-4). All tests were performed with bacteria in mid-logarithmic growth phase. Determination of the minimum inhibitory concentration (MIC) of the peptides for bacterial strains were performed in 1% Bacto Peptone water. A standard microdilution technique with an inoculum of 2×10^6 CFU/ml was used. All assays were performed in triplets. Since the peptides are positively charged and therefore could adhere to the plastic wells, we controlled the actual concentration of the peptides in the solution by HPLC. There was no difference between the concentration of the peptides before or after adding the solution to the plastic wells.

In experiment [2] the test system is Staphylococcus aureus ATCC 25923. In kind it is cell-based. As to the method:
as §1

Take `CSCC[C@H](NC(=O)[C@H](CCCNC(=N)N)NC(=O)[C@H](Cc1ccc(-c2ccccc2)cc1)NC(=O)[C@H](CCC(N)=O)NC(=O)[C@H](Cc1c[nH]c2ccccc12)NC(=O)[C@H](CCCNC(=N)N)NC(=O)[C@H](CCCNC(=N)N)NC(=O)[C@H](CSCNC(C)=O)NC(=O)[C@H](CCCCN)NC(=O)[C@@H](N)Cc1ccccc1)C(=O)N[C@@H](CCCCN)C(=O)N[C@@H](CCCCN)C(=O)N[C@@H](CC(C)C)C(=O)NCC(=O)N[C@@H](C)C(=O)O` [LFB Bip8]: in experiment [1] (ATCC 25922), the “MIC E. coli” value came to 15 µg/mL (≈ 7.13 µM). Besides, the “MIC S. aureus” value in experiment [2] (ATCC 25923) is 15 µg/mL (≈ 7.13 µM).

`CSCC[C@H](NC(=O)[C@H](CCCNC(=N)N)NC(=O)[C@H](Cc1c[nH]c2ccccc12)NC(=O)[C@H](CCC(N)=O)NC(=O)[C@H](Cc1c[nH]c2ccccc12)NC(=O)[C@H](CCCNC(=N)N)NC(=O)[C@H](Cc1ccccc1)NC(=O)[C@H](CSCNC(C)=O)NC(=O)[C@H](CCCCN)NC(=O)[C@@H](N)CCCCN)C(=O)N[C@@H](CCCCN)C(=O)N[C@@H](CCCCN)C(=O)N[C@@H](CC(C)C)C(=O)NCC(=O)N[C@@H](C)C(=O)O` [LFB F4K1] (H-KKC(Acm)FRWQWRMKKLGA-OH; N-terminus assumed): the “MIC E. coli ATCC 25922” value was 20 µg/mL in experiment [1] (ATCC 25922) and 10 µM in experiment [1] (Table 1, value in brackets). The “MIC E. coli” value in experiment [1] (Table 12) stood at 20 µg/mL (≈ 9.82 µM). Moreover, the “MIC S. aureus ATCC 25923” value in experiment [2] (ATCC 25923) was found to be 200 µg/mL; in experiment [2] (Table 1, value in brackets), 100 µM. Besides, the “MIC S. aureus” value in experiment [2] (Table 12) stood at 200 µg/mL (≈ 98.2 µM).

Consider `CSCC[C@H](NC(=O)[C@H](CCCNC(=N)N)NC(=O)[C@H](Cc1c[nH]c2ccccc12)NC(=O)[C@H](CCC(N)=O)NC(=O)[C@H](Cc1c[nH]c2ccccc12)NC(=O)[C@H](CCCNC(=N)N)NC(=O)[C@H](CCCNC(=N)N)NC(=O)[C@H](CSCNC(C)=O)NC(=O)[C@H](CCCCN)NC(=O)[C@@H](N)CCCCN)C(=O)N[C@@H](CCCCN)C(=O)N[C@@H](CCCCN)C(=O)N[C@@H](CC(C)C)C(=O)NCC(=O)N[C@@H](C)C(=O)O` [LFB K1] (H-KKC(Acm)RRWQWRMKKLGA-OH; N-terminus assumed), for which the “MIC E. coli ATCC 25922” value in experiment [1] (ATCC 25922) is 60 µg/mL; in experiment [1] (Table 1, value in brackets), 30 µM. For the same compound, in experiment [1] (Table 12), the “MIC E. coli” value amounted to 60 µg/mL (≈ 29.3 µM). In addition, the “MIC S. aureus ATCC 25923” value in experiment [2] (ATCC 25923) is 100 µg/mL; in experiment [2] (Table 1, value in brackets), 50 µM. The “MIC S. aureus” value in experiment [2] (Table 12) was determined as 100 µg/mL (≈ 48.9 µM).

`CSCC[C@H](NC(=O)[C@H](CCCNC(=N)N)NC(=O)[C@H](Cc1c[nH]c2ccccc12)NC(=O)[C@H](CCC(N)=O)NC(=O)[C@H](Cc1c[nH]c2ccccc12)NC(=O)[C@H](CCC(N)=O)NC(=O)[C@H](Cc1ccc(O)cc1)NC(=O)[C@H](CSCNC(C)=O)NC(=O)[C@H](CCCCN)NC(=O)[C@@H](N)CO)C(=O)N[C@@H](CCCNC(=N)N)C(=O)N[C@@H](CCCCN)C(=O)N[C@@H](CC(C)C)C(=O)NCC(=O)N[C@@H](C)C(=O)O` [LFGW8, H2N-Ser-Lys-Cys-Tyr-Gln-Trp-Gln-Trp-Arg-Met-Arg-Lys-Leu-Gly-Ala-COOH] (H-SKC(Acm)YQWQWRMRKLGA-OH) showed an MIC E. coli in experiment [1] (Table 4) of 500 µg/mL (≈ 248 µM). In experiment [2] (Table 4, unit assumed), the MIC S. aureus is more than 1000 µg/mL.

In experiment [1] (Table 4), `CSCC[C@H](NC(=O)[C@H](CC(N)=O)NC(=O)[C@H](Cc1c[nH]c2ccccc12)NC(=O)[C@H](CCC(N)=O)NC(=O)[C@H](Cc1c[nH]c2ccccc12)NC(=O)[C@H](CCC(N)=O)NC(=O)[C@H](Cc1ccccc1)NC(=O)[C@H](CSCNC(C)=O)NC(=O)[C@H](CCCCN)NC(=O)[C@@H](N)[C@@H](C)O)C(=O)N[C@@H](CCCNC(=N)N)C(=O)N[C@@H](CCCCN)C(=O)N[C@H](C(=O)N[C@@H](CCCNC(=N)N)C(=O)NCC(=O)O)C(C)C` [LFHW8, H2N-Thr-Lys-Cys-Phe-Gln-Trp-Gln-Trp-Asn-Met-Arg-Lys-Val-Arg-Gly-COOH] (H-TKC(Acm)FQWQWNMRKVRG-OH) displayed an MIC E. coli of 110 µg/mL (≈ 53.9 µM). This compound also yielded an MIC S. aureus in experiment [2] (Table 4, unit assumed) of more than 1000 µg/mL.
